Experimental data as given in PubChem BioAssay AID1259407 (Chemical Carcinogenesis Research Information System (CCRIS), 2018).
Activity calls are given as the source filed them. No rule for the calls is given here.

System: CCRIS mutagenicity, Ames/micronucleus/aberration tests
Test: CCRIS mutagenicity studies

SMILES: Nc1ccc2ccccc2c1
- mutagenic call (Test System: AMES SALMONELLA TYPHIMURIUM, Strain/Indicator: TA98(1,8-DNP6), Metabolic Activation: PLANT CELLS, Method: PREINCUBATION): inactive; negative
- mutagenic call (Test System: AMES SALMONELLA TYPHIMURIUM, Strain/Indicator: TA98, Metabolic Activation: HAMSTER, LIVER, S-9, AROCLOR 1254 (30%), Method: PREINCUBATION): active; positive
- mutagenic call (Test System: AMES SALMONELLA TYPHIMURIUM, Strain/Indicator: TA98, Metabolic Activation: HUMAN, RED BLOOD CELL, CYTOSOL, Method: PREINCUBATION): active; positive
- mutagenic call (Test System: AMES SALMONELLA TYPHIMURIUM, Strain/Indicator: TA98, Metabolic Activation: MOUSE, LIVER, S-9, PHENOBARBITAL AND BETA-NAPHTHOFLAVONE, Method: STANDARD PLATE): active; positive
- mutagenic call (Test System: AMES SALMONELLA TYPHIMURIUM, Strain/Indicator: TA98, Metabolic Activation: MOUSE, LIVER, S-9, PHENOBARBITAL, BETA-NAPHTHOFLAVONE, ISOSAFROLE, ETHANOL, PREGNENOLONE AND 16ALPHA-CARBONITRILE, Method: STANDARD PLATE): active; positive
- mutagenic call (Test System: AMES SALMONELLA TYPHIMURIUM, Strain/Indicator: TA98, Metabolic Activation: NONE, Method: PREINCUBATION): inactive; negative
- mutagenic call (Test System: AMES SALMONELLA TYPHIMURIUM, Strain/Indicator: TA98, Metabolic Activation: NONE, Method: STANDARD PLATE): inactive; negative
- mutagenic call (Test System: AMES SALMONELLA TYPHIMURIUM, Strain/Indicator: TA98, Metabolic Activation: PLANT CELLS, Method: PREINCUBATION): inactive; negative
- mutagenic call (Test System: AMES SALMONELLA TYPHIMURIUM, Strain/Indicator: TA98, Metabolic Activation: RAT, LIVER, S-9, AROCLOR 1254 (2%), Method: STANDARD PLATE): active; positive
- mutagenic call (Test System: AMES SALMONELLA TYPHIMURIUM, Strain/Indicator: TA98, Metabolic Activation: RAT, LIVER, S-9, AROCLOR 1254 (30%), Method: PREINCUBATION): active; positive
- mutagenic call (Test System: AMES SALMONELLA TYPHIMURIUM, Strain/Indicator: TA98, Metabolic Activation: RAT, LIVER, S-9, AROCLOR 1254, Method: STANDARD PLATE): inactive; negative
- mutagenic call (Test System: AMES SALMONELLA TYPHIMURIUM, Strain/Indicator: TA98, Metabolic Activation: RAT, LIVER, S-9, KANECHLOR 500 OR PHENOBARBITAL AND BETA-NAPHTHOFLAVONE, Method: PREINCUBATION): active; positive
- mutagenic call (Test System: AMES SALMONELLA TYPHIMURIUM, Strain/Indicator: TA100, Metabolic Activation: HAMSTER, LIVER, S-9, AROCLOR 1254 (30%), Method: PREINCUBATION): active; positive
- mutagenic call (Test System: AMES SALMONELLA TYPHIMURIUM, Strain/Indicator: TA100, Metabolic Activation: NONE, Method: PREINCUBATION): inactive; negative
- mutagenic call (Test System: AMES SALMONELLA TYPHIMURIUM, Strain/Indicator: TA100, Metabolic Activation: NONE, Method: STANDARD PLATE): inactive; negative
- mutagenic call (Test System: AMES SALMONELLA TYPHIMURIUM, Strain/Indicator: TA100, Metabolic Activation: RAT, LIVER, S-9, AROCLOR 1254 (10%) (WITHOUT ADDED COFACTORS), Method: STANDARD PLATE): inactive; negative
- mutagenic call (Test System: AMES SALMONELLA TYPHIMURIUM, Strain/Indicator: TA100, Metabolic Activation: RAT, LIVER, S-9, AROCLOR 1254 (30%), Method: PREINCUBATION): active; positive
- mutagenic call (Test System: AMES SALMONELLA TYPHIMURIUM, Strain/Indicator: TA100, Metabolic Activation: RAT, LIVER, S-9, AROCLOR 1254, Method: STANDARD PLATE): active; positive
- mutagenic call (Test System: AMES SALMONELLA TYPHIMURIUM, Strain/Indicator: TA100, Metabolic Activation: RAT, LIVER, S-9, AROCLOR (10%), Method: STANDARD PLATE): active; positive
- mutagenic call (Test System: AMES SALMONELLA TYPHIMURIUM, Strain/Indicator: TA100, Metabolic Activation: RAT, LIVER, S-9, KANECHLOR 500 OR PHENOBARBITAL AND BETA-NAPHTHOFLAVONE, Method: PREINCUBATION): active; positive
- mutagenic call (Test System: AMES SALMONELLA TYPHIMURIUM, Strain/Indicator: TA100, Metabolic Activation: RAT, LIVER, S-9, KC500 OR PHENOBARBITAL, Method: LIQUID SUSPENSION): active; positive
- mutagenic call (Test System: AMES SALMONELLA TYPHIMURIUM, Strain/Indicator: TA100, Metabolic Activation: RAT, LIVER, S-9, TCDD, Method: STANDARD PLATE): active; positive
- mutagenic call (Test System: AMES SALMONELLA TYPHIMURIUM, Strain/Indicator: TA100, Metabolic Activation: S-9, Method: FLUCTUATION TEST): active; positive
- mutagenic call (Test System: AMES SALMONELLA TYPHIMURIUM, Strain/Indicator: TA1535, Metabolic Activation: RAT, LIVER, S-9, AROCLOR 1254, Method: STANDARD PLATE): active; positive
- mutagenic call (Test System: AMES SALMONELLA TYPHIMURIUM, Strain/Indicator: TA1535, Metabolic Activation: RAT, LIVER, S-9, AROCLOR (10%), Method: STANDARD PLATE): active; positive
- mutagenic call (Test System: AMES SALMONELLA TYPHIMURIUM, Strain/Indicator: TA1535, Metabolic Activation: RAT, LIVER, S-9, PHENOBARBITAL, Method: STANDARD PLATE): active; positive
- mutagenic call (Test System: AMES SALMONELLA TYPHIMURIUM, Strain/Indicator: YG1024, Metabolic Activation: PLANT CELLS, Method: PREINCUBATION): inactive; negative
- mutagenic call (Test System: CHINESE HAMSTER V-79, Strain/Indicator: V-79/6-THIOGUANINE, Metabolic Activation: NONE, Method: SUSPENSION/PLATE): inactive; negative
- mutagenic call (Test System: CHINESE HAMSTER V-79, Strain/Indicator: V-79/6-THIOGUANINE, Metabolic Activation: RAT, LIVER, S-9, PHENOBARBITAL AND BETA-NAPHTHOFLAVONE, Method: SUSPENSION/PLATE): active; positive
- mutagenic call (Test System: E. COLI, Strain/Indicator: WP2 UVRA, Metabolic Activation: HAMSTER, LIVER, S-9, AROCLOR 1254, Method: STANDARD PLATE): inactive; negative
- mutagenic call (Test System: E. COLI, Strain/Indicator: WP2 UVRA, Metabolic Activation: HAMSTER, LIVER, S-9, Method: STANDARD PLATE): inactive; negative
- mutagenic call (Test System: E. COLI, Strain/Indicator: WP2 UVRA, Metabolic Activation: MOUSE, LIVER, S-9, AROCLOR 1254, Method: STANDARD PLATE): inactive; negative
- mutagenic call (Test System: E. COLI, Strain/Indicator: WP2 UVRA, Metabolic Activation: MOUSE, LIVER, S-9, Method: STANDARD PLATE): inactive; negative
- mutagenic call (Test System: E. COLI, Strain/Indicator: WP2 UVRA, Metabolic Activation: NONE, Method: STANDARD PLATE): inactive; negative
- mutagenic call (Test System: E. COLI, Strain/Indicator: WP2 UVRA, Metabolic Activation: RAT, LIVER, S-9, AROCLOR 1254, Method: STANDARD PLATE): inactive; negative
- mutagenic call (Test System: E. COLI, Strain/Indicator: WP2 UVRA, Metabolic Activation: RAT, LIVER, S-9, Method: STANDARD PLATE): inactive; negative
